EC50 data for two compounds are collected here from PubChem BioAssay AID2359 (Sanford-Burnham Center for Chemical Genomics, 2010).

By EC50 is commonly meant the concentration that produces a half-maximal response.

The assay concerns the target Kappa-type opioid receptor (Homo sapiens) (UniProt P41145). Put plainly: KOR agonist analogs, imaging readout, SAR follow-up, image-based (AID 2359). The settings on record: KOR agonist image-based assay (receptor translocation imaging).

Chain of Kappa-type opioid receptor (Homo sapiens) (P41145 whole entry, looked up): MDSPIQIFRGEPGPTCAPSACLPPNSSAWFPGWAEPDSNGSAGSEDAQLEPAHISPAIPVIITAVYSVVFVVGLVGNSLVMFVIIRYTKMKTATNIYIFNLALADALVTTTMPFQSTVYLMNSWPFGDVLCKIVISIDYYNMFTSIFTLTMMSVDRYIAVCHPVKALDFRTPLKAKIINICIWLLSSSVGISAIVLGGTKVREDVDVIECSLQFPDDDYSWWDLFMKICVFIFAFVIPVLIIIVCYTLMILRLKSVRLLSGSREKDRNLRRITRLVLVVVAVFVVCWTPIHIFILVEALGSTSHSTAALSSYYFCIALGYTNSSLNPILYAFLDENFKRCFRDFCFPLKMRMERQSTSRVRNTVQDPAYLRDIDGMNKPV

For `CCCCN(Cc1cc2cc(C)ccc2[nH]c1=O)C(=O)c1ccccn1`, the EC50 is 4.93 µM.
In the case of `COc1ccc(CN(Cc2ccccn2)C(=O)CN2C(=O)COc3ccccc32)cc1` it was 10.1 µM.
